Numbering of substitutions follows the chain as printed.
Experiments:
[1] = biological target: T1, human androgen receptor W741C mutant (Homo sapiens, UniProt P10275, W742C); assay: Cell-based transactivation assay for human androgen receptor mutant W741C
T1 construct: expressed in transfected cells; host or cells: PC-3 cells, transient transfection with a pSG5-derived plasmid
T1 sequence (P10275 1-920 W742C): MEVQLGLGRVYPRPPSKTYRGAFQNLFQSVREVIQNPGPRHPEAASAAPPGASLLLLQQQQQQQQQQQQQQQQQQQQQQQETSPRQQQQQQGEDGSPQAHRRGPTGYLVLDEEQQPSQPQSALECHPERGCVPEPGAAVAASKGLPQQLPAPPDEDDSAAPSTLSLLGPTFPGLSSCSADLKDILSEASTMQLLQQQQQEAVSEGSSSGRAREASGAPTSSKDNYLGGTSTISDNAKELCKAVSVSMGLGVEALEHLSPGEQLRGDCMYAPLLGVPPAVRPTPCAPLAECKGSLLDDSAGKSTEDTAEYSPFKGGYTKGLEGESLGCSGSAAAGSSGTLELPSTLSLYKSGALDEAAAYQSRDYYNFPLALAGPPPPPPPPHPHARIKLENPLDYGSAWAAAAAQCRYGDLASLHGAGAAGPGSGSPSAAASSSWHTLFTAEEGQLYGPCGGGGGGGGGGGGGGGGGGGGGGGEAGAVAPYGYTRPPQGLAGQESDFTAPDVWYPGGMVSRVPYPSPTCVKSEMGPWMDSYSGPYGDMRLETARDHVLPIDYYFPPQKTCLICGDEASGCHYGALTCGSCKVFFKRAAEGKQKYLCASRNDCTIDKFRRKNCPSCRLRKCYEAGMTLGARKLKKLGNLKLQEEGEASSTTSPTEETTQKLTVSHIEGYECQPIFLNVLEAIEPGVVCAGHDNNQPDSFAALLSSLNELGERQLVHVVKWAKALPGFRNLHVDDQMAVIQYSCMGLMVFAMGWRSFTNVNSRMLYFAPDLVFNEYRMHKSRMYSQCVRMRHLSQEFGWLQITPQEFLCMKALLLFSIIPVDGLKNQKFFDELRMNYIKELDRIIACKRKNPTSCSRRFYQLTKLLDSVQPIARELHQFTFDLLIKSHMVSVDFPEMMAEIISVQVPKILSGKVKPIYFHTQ
Protocol: (§1) Cell-Based Transactivation Assay for Human Androgen Receptor Mutant W741L or W741C
(§2) PC-3 cells (Kaighn et al., Invest. Urol. 17:16-23, 1979) were grown in 5% charcoal-stripped medium and seeded at a concentration of 10000 cells per well in a 96-well plate. They were transiently transfected with a pSG5-derived plasmid (#216201 from Stratagene, La Jolla, Calif., USA) coding for the human androgen receptor W741L or W741C mutant Mara et al., Cancer Research, 63: 149-153, 2003) and an MMTV-Luciferase reporter plasmid based on pGL4.14 14 (#E6691, Promega Corporation, Madison, Wis., USA). The compound to be tested was added at a concentration range varying from 1×10^−9 to 1×10 M together with 1×10^−10 R1881. After 24 h incubation at 37° C. in a 5% CO2 atmosphere, 100 μl of Steady Glo Lysis and Detection reagent (Steady Glo Luciferase assay system E2550 from Promega Corporation. Madison, Wis., USA) were added. Antagonistic activity was determined by measuring Luciferase activity in a Victor 3 Luminometer (PerkinElmer, Waltham, Mass., USA) using the Steady Glo Luciferase Assay (E2550, Promega). IC50 values were calculated for anti-androgenic activity.

[2] = biological target: T2, human androgen receptor W741L mutant (Homo sapiens, UniProt P10275, W742L); assay: Cell-based transactivation assay for human androgen receptor mutant W741L
T2 construct: expressed in transfected cells; host or cells: PC-3 cells, transient transfection with a pSG5-derived plasmid
T2 sequence (P10275 1-920 W742L): T1 sequence (P10275 1-920 W742C) with C742L
Protocol: as §1, §2

LNCaP cells = assay: Proliferation assay with LNCaP cells; type: cell-based; conditions: Homo sapiens, 168 h, R1881 (1×10^−10) stimulated growth, day 7, read-out: inhibition IC50 (LNCaP)
Protocol: Proliferation Assay with LNCaP Cells
LNCaP cells (Horoszewicz et al., in “Models for Prostate Cancer” (ed. G. P. Murphy), Alan R. Liss, New York 1981, p. 115-132; Horoszewicz et al., Cancer Res. 43:1809-1818, 1983) were seeded at 2000 cells/well in 96-well plates in RPMI (F1235, Biochrom AG, Berlin, Germany) without phenol red supplemented with 5% charcoal-stripped serum. After 3 days, the cells were treated with R1881) (1×10^−10) and compound (day 0). Cell number was determined by Alamar Blue (DAL1100, Invitrogen, Life Technologies, Lohne, Germany) staining (2.5 h) at day 0 and day 7. Fluorescence was determined in Victor3 (Excitation 530 nm; emission 590 nm). Stimulated growth was defined as the signal measured at day 7 for cells treated only with R1881. Basal level was defined as the signal measured at day 7 for cells grown without R1881.

Row | SMILES | IC50 [1] [nM] | IC50 [2] [nM] | IC50 (LNCaP cells) [nM]
1 | CN1C(=S)N(c2ccc(C#N)c(C(F)(F)F)c2)C(=O)C1(C)C [2-(Trifluoromethyl)-4-(3,4,4-trimethyl-5-oxo-2-thioxoimidazolidin-1-yl)benzonitrile, reference compound] | 21.2 | 159 | –
2 | CC1(C)C(=O)N(c2ccc(C#N)c(C(F)(F)F)c2)C(=S)N1CCCCO [4-[3-(4-Hydroxybutyl)-4,4-dimethyl-5-oxo-2-thioxoimidazolidin-1-yl]-2-(trifluoromethyl)benzonitrile, reference compound] | 27.1 | 89.7 | –
3 | CC1(C)C(=O)N(c2ccc(C#N)c(C(F)(F)F)c2)C(=S)N1Cc1ccc(F)cc1 [Comparative data^4] | > 1000 | > 1000 | –
4 | CC1(C)C(=O)N(c2ccc(C#N)c(C(F)(F)F)c2)C(=S)N1Cc1ccccc1 [Comparative data^4] | 142 | 166 | –
5 | CC1(C)C(=O)N(c2ccc(C#N)c(C(F)(F)F)c2)C(=S)N1Cc1ccc(-n2ccnc2)nc1 [Example 1, 4-(3-{[6-(1H-Imidazol-1-yl)pyridin-3-yl]methyl}-4,4-dimethyl-5-oxo-2-thioxoimidazolidin-1-yl)-2-(trifluoromethyl)benzonitrile] | 216 | 173 | 59
6 | CC1(C)C(=O)N(c2ccc(C#N)c(C(F)(F)F)c2)C(=S)N1Cc1ccc(C(F)(F)F)nc1 [Example 2, 4-(4,4-Dimethyl-5-oxo-2-thioxo-3-{[6-(trifluoromethyl)pyridin-3-yl]methyl}imidazolidin-1-yl)-2-(trifluoromethyl)benzonitrile] | – | 86.7 | 314
7 | CC1(C)C(=O)N(c2ccc(C#N)c(C(F)(F)F)c2)C(=S)N1Cc1ccc(N2CCOCC2)nc1 [Example 4, 4-(4,4-Dimethyl-3-{[6-(morpholin-4-yl)pyridin-3-yl]methyl}-5-oxo-2-thioxoimidazolidin-1-yl)-2-(trifluoromethyl)benzonitrile] | 270 | 89.2 | 117
8 | CC1(C)C(=O)N(c2ccc(C#N)c(C(F)(F)F)c2)C(=S)N1Cc1ccc(N2CCS(=N)(=O)CC2)nc1 [Example 9, 4-(3-{[6-(1-Imino-1-oxido-1λ^6-thiomorpholin-4-yl)pyridin-3-yl]methyl}-4,4-dimethyl-5-oxo-2-thioxoimidazolidin-1-yl)-2-(trifluoromethyl)benzonitrile] | – | 275 | 303
9 | CC(C)(O)COc1ccc(CN2C(=S)N(c3ccc(C#N)c(C(F)(F)F)c3)C(=O)C2(C)C)cn1 [Example 10, 4-(3-{[6-(2-Hydroxy-2-methylpropoxy)pyridin-3-yl]methyl}-4,4-dimethyl-5-oxo-2-thioxoimidazolidin-1-yl)-2-(trifluoromethyl)benzonitrile] | 115 | 285 | 283
10 | Cc1nc(C(F)(F)F)ccc1CN1C(=S)N(c2ccc(C#N)c(C(F)(F)F)c2)C(=O)C1(C)C [Example 13, 4-(4,4-Dimethyl-3-{[2-methyl-6-(trifluoromethyl)pyridin-3-yl]methyl}-5-oxo-2-thioxoimidazolidin-1-yl)-2-(trifluoromethyl)benzonitrile] | – | 93.7 | 124

— patent US20120251551A1, “Substituted (Heteroarylmethyl)thiohydantoins” (BAYER PHARMA AKTIENGESELLSCHAFT, priority 2009, published 2012)
